Measured values published in patent US20150038527A1, “FUROPYRIDINE DERIVATIVES” (Merck Patent GmbH, priority 2012, published 2015).

Molecular target: T1, SYK (Homo sapiens, UniProt P43405)
T1 construct: 2.5 nM SYK, 400 nM Biotin-Aha-Aha-KEDPDYEWPSAKK and 10 μM ATP
Assay: SYK Flash Plate Assay (enzyme assay)
Format: biochemical
Protocol: The kinase assay is performed either as 384-well Flashplate assay (for e.g. Topcount measurement) or as 384-well Image-Flashplate assay (for LEADseeker measurement).
2.5 nM SYK, 400 nM Biotin-Aha-Aha-KEDPDYEWPSAKK and 10 μM ATP (spiked with 0.3 μCi 33P-ATP/well) are incubated in a total volume of 50 μl (60 mM Hepes, 10 mM MgCl2, 1.2 mM Dithiothreitol, 0.02% Brij35, 0.1% BSA, pH 7.5) with or without test compound for 1 hours at 30° C. The reaction is stopped with 25 μl 200 mM EDTA. After 30 Min at 30° C. the liquid is removed and each well washed thrice with 100 μl 0.9% sodium chloride solution. Non-specific reaction is determined in presence of 0.1 μM Staurosporine. Radioactivity is measured with Topcount (when using Flashplates) or with LEADseeker (when using Image-Flashplates) respectively. Results (e.g. IC50-values) are calculated with program tools provided by the IT-department (e.g. Symyx Assay Explorer, Genedata Screener).

| Structure (SMILES) | IC50 |
| --- | --- |
| COc1cc(-c2cc3nccc(-c4cccc(C(=O)NCC(N)C5CC5)c4)c3o2)cc(OC)c1OC (centres unmarked) [Compound A23, N-(2-amino-2-cyclopropyl-ethyl)-3-[2-(3,4,5-trimethoxy-phenyl)-furo[3,2-b]pyridin-7-yl]-benzamide] | 0.3 to 3 µM |
| Cc1cc2[nH]ncc2cc1-c1cc2nccc(-c3cccc(C(=O)N[C@@H]4CCCC[C@@H]4N)c3)c2o1 [Compound A45, N-((1R,2S)-2-amino-cyclohexyl)-3-[2-(6-methyl-1H-indazol-5-yl)-furo[3,2-b]pyridin-7-yl]-benzamide] | 0.3 to 3 µM |
| COc1cc(-c2cc3nccc(-c4cc(OCCN)ccc4F)c3o2)cc(OC)c1OC [Compound A44, 2-{4-fluoro-3-[2-(3,4,5-trimethoxy-phenyl)-furo[3,2-b]pyridin-7-yl]-phenoxy}-ethylamine] | 0.3 to 3 µM |
| COc1cc(-c2cc3nccc(-c4cccc(C(=O)N[C@@H]5CCCC[C@@H]5NS(C)(=O)=O)c4)c3o2)cc(OC)c1OC [Compound A33, N-((1R,2S)-2-methanesulfonylamino-cyclohexyl)-3-[2-(3,4,5-trimethoxyphenyl)-furo[3,2-b]pyridin-7-yl]-benzamide] | 3 to 50 µM |
| COc1cc(-c2cc3nccc(-c4ccc5c(c4)[nH]c(=O)n5CCN)c3o2)cc(OC)c1OC [Compound A37, 1-(2-amino-ethyl)-5-[2-(3,4,5-trimethoxy-phenyl)-furo[3,2-b]pyridin-7-yl]-1,3-dihydro-benzoimidazol-2-one] | 0.3 to 3 µM |
| COc1cc(-c2cc3nccc(-c4cccc(C(=O)N[C@@H]5C[C@@H]5N)c4)c3o2)cc(OC)c1OC [Compound A64, N-((1R,2S)-2-amino-cyclopropyl)-3-[2-(3,4,5-trimethoxy-phenyl)-furo[3,2-b]pyridin-7-yl]-benzamide] | 0.3 to 3 µM |
| COc1cc(-c2cc3nccc(C(N)=O)c3o2)cc(OC)c1OC [Compound A98, 2-(3,4,5-trimethoxy-phenyl)-furo[3,2-b]pyridine-7-carboxylic acid amide] | 0.3 to 3 µM |
| COc1ccc([C@H](C)N)cc1-c1ccnc2cc(-c3cc(OC)c(OC)c(OC)c3)oc12 [Compound A101, (S)-1-{4-methoxy-3-[2-(3,4,5-trimethoxy-phenyl)-furo[3,2-b]pyridin-7-yl]-phenyl}-ethylamine] | 0.3 to 3 µM |
| COCC(O)CNC(=O)c1cccc(-c2ccnc3cc(-c4cc(OC)c(OC)c(OC)c4)oc23)c1 (centres unmarked) [Compound A16, N-(2-hydroxy-3-methoxy-propyl)-3-[2-(3,4,5-trimethoxy-phenyl)-furo[3,2-b]pyridin-7-yl]-benzamide] | 3 to 50 µM |
| COC[C@@H](CNC(=O)c1cccc(-c2ccnc3cc(-c4cc(OC)c(OC)c(OC)c4)oc23)c1)NS(C)(=O)=O [Compound A10, N—((R)-2-methanesulfonylamino-3-methoxy-propyl)-3-[2-(3,4,5-trimethoxyphenyl)-furo[3,2-b]pyridin-7-yl]-benzamide] | 0.3 to 3 µM |
| COc1ccc(-c2noc(CN)n2)cc1-c1cc2nccc(-c3c(OC)cccc3OC)c2o1 [Compound A106, C-(3-{3-[7-(2,6-dimethoxy-phenyl)-furo[3,2-b]pyridin-2-yl]-4-methoxy-phenyl}-[1,2,4]oxadiazol-5-yl)-methylamine] | < 0.1 µM |
| COc1cc(-c2cc3nccc(N=[N+]=[N-])c3o2)cc(OC)c1OC [Compound A86, 7-azido-2-(3,4,5-trimethoxy-phenyl)-furo[3,2-b]pyridine] | 3 to 50 µM |
| COc1cc(-c2cc3nccc(-c4nnc(CCCN)[nH]4)c3o2)cc(OC)c1OC [Compound A108, 3-{5-[2-(3,4,5-trimethoxy-phenyl)-furo[3,2-b]pyridin-7-yl]-4H-[1,2,4]triazol-3-yl}-propylamine] | 0.1 to 0.3 µM |
| COc1cc(-c2cc3nccc(-c4cc(F)cc(C(=O)NCCN)c4)c3o2)cc(OC)c1OC [Compound A55, N-(2-amino-ethyl)-3-fluoro-5-[2-(3,4,5-trimethoxy-phenyl)-furo[3,2-b]pyridin-7-yl]-benzamide] | 0.1 to 0.3 µM |
| COc1ccc([C@@H](C)N)cc1-c1ccnc2cc(-c3cc(OC)c(OC)c(OC)c3)oc12 [Compound A100, (R)-1-{4-methoxy-3-[2-(3,4,5-trimethoxy-phenyl)-furo[3,2-b]pyridin-7-yl]-phenyl}-ethylamine] | 0.3 to 3 µM |
| COc1cc(-c2cc3nccc(-c4cccc(C(=O)NC[C@H](O)[C@@H](O)[C@H](O)[C@H](O)CO)c4)c3o2)cc(OC)c1OC [Compound A28, N-((2S,3R,4R,5R)-2,3,4,5,6-pentahydroxy-hexyl)-3-[2-(3,4,5-trimethoxyphenyl)-furo[3,2-b]pyridin-7-yl]-benzamide] | 3 to 50 µM |
| COc1cc(-c2cc3ncc(-c4cn[nH]c4)cc3o2)cc(OC)c1OC [Compound A59, 6-(1H-pyrazol-4-yl)-2-(3,4,5-trimethoxy-phenyl)-furo[3,2-b]pyridine] | 3 to 50 µM |
| COC[C@@H](N)CNC(=O)c1cccc(-c2ccnc3cc(-c4cc(OC)c(OC)c(OC)c4)oc23)c1 [Compound A26, N—((S)-2-amino-3-methoxy-propyl)-3-[2-(3,4,5-trimethoxy-phenyl)-furo[3,2-b]pyridin-7-yl]-benzamide] | 3 to 50 µM |
| COc1cc(-c2cc3nccc(-c4cc5cn[nH]c5cc4C)c3o2)cc(OC)c1OC [Compound A13, 7-(6-methyl-1H-indazol-5-yl)-2-(3,4,5-trimethoxy-phenyl)-furo[3,2-b]pyridine] | 0.3 to 3 µM |
| CCc1ccc(OC)cc1-c1cc2nccc(-c3cccc(C(=O)N[C@@H]4CCCC[C@@H]4N)c3)c2o1 [Compound A42, N-((1R,2S)-2-amino-cyclohexyl)-3-[2-(2-ethyl-5-methoxy-phenyl)-furo[3,2-b]pyridin-7-yl]-benzamide] | 3 to 50 µM |

Second part, the molecule after the results:

| IC50 | Structure (SMILES) |
| --- | --- |
| 0.1 to 0.3 µM | COc1ccc(C(N)=O)cc1-c1cc2nccc(-c3cc[nH]c3)c2o1 [Compound A94, 4-methoxy-3-[7-(1H-pyrrol-3-yl)-furo[3,2-b]pyridin-2-yl]-benzamide] |
| < 0.1 µM | COc1ccc(-c2nnn[nH]2)cc1-c1cc2nccc(-c3c(OC)cccc3OC)c2o1 [Compound A84, 7-(2,6-dimethoxy-phenyl)-2-[2-methoxy-5-(1H-tetrazol-5-yl)-phenyl]-furo[3,2-b]pyridine] |
| 0.3 to 3 µM | COc1ccc(C(=O)NCCN)cc1-c1cc2nccc(-c3c(OC)cccc3OC)c2o1 [Compound A71, N-(2-amino-ethyl)-3-[7-(2,6-dimethoxy-phenyl)-furo[3,2-b]pyridin-2-yl]-4-methoxy-benzamide] |
| 0.1 to 0.3 µM | COc1ccc(C(N)=O)cc1-c1cc2nccc(-c3cc([C@@H](C)N)ccc3OC)c2o1 [Compound A1, 3-{7-[5-((R)-1-Amino-ethyl)-2-methoxy-phenyl]-furo[3,2-b]pyridin-2-yl}-4-methoxy-benzamide] |
| < 0.1 µM | COc1ccc(-c2noc(=O)[nH]2)cc1-c1cc2nccc(-c3cc[nH]n3)c2o1 [Compound A105, 3-{4-methoxy-3-[7-(1H-pyrazol-3-yl)-furo[3,2-b]pyridin-2-yl]-phenyl}-4H-[1,2,4]oxadiazol-5-one] |
| 0.1 to 0.3 µM | COc1ccc(C(N)=O)cc1-c1cc2nccc(-c3cnc[nH]3)c2o1 [Compound A93, 3-[7-(3H-imidazol-4-yl)-furo[3,2-b]pyridin-2-yl]-4-methoxy-benzamide] |
| < 0.1 µM | COc1ccc(C(N)=O)cc1-c1cc2nccc(-c3ccc4[nH]cnc4c3)c2o1 [Compound A9, 3-[7-(1H-benzoimidazol-5-yl)-furo[3,2-b]pyridin-2-yl]-4-methoxy-benzamide] |
| 0.3 to 3 µM | COc1ccc(C(N)=O)cc1-c1cc2nccc(-c3c(OC)cccc3OC)c2o1 [Compound A62, 3-[7-(2,6-dimethoxy-phenyl)-furo[3,2-b]pyridin-2-yl]-4-methoxy-benzamide] |
| < 0.1 µM | COc1ccc(C#N)cc1-c1cc2nccc(-c3cc[nH]n3)c2o1 [Compound A88, 4-methoxy-3-[7-(1H-pyrazol-3-yl)-furo[3,2-b]pyridin-2-yl]-benzonitrile] |
| 3 to 50 µM | COc1cccc(OC)c1-c1ccnc2cc(-c3cc(C(N)=O)ccc3C(C)C)oc12 [Compound A74, 3-[7-(2,6-dimethoxy-phenyl)-furo[3,2-b]pyridin-2-yl]-4-isopropyl-benzamide] |
| < 0.1 µM | COc1ccc(C(N)=O)cc1-c1cc2nccc(-c3ccnc(NC[C@H]4CCCNC4)c3)c2o1 [Compound A90, 4-methoxy-3-(7-{2-[((S)-1-piperidin-3-ylmethyl)-amino]-pyridin-4-yl}-furo[3,2-b]pyridin-2-yl)-benzamide] |
| 0.3 to 3 µM | COc1ccc(C(N)=O)cc1-c1cc2nccc(-c3cccc(C(=O)N[C@@H]4CCCC[C@@H]4N)c3)c2o1 [Compound A46, 3-{7-[3-((1R,2S)-2-amino-cyclohexylcarbamoyl)-phenyl]-furo[3,2-b]pyridin-2-yl}-4-methoxy-benzamide] |
| 0.3 to 3 µM | COc1ccc(C(=O)NCC(O)CO)cc1-c1cc2nccc(-c3c(OC)cccc3OC)c2o1 (centres unmarked) [Compound A70, N-(2,3-dihydroxy-propyl)-3-[7-(2,6-dimethoxy-phenyl)-furo[3,2-b]pyridin-2-yl]-4-methoxy-benzamide] |
| 0.3 to 3 µM | COc1ccc(C(N)=O)cc1-c1cc2nccc(-c3cc(S(N)(=O)=O)ccc3OC)c2o1 [Compound A77, 4-methoxy-3-[7-(2-methoxy-5-sulfamoyl-phenyl)-furo[3,2-b]pyridin-2-yl]-benzamide] |
| 0.3 to 3 µM | COc1ccc(C(N)=O)cc1-c1cc2nccc(-c3cc(C(N)=O)ccc3OC)c2o1 [Compound A31, 3-[2-(5-carbamoyl-2-methoxy-phenyl)furo[3,2-b]pyridin-7-yl]-4-methoxybenzamide] |
